Consider eleven molecules from patent US20250099493A1, “PHOSPHONATES AS INHIBITORS OF ENPP1 AND CDNP” (STINGRAY THERAPEUTICS, INC., priority 2020, published 2025).

The target in experiment [1] is Recombinant Human ENPP-1 Protein (Homo sapiens (Human), UniProt P22413). Put plainly: ENPP1 Inhibition Assay. Format: biochemical. As to the method: Assay Buffer: 1 mM CaCl2), 0.2 mM ZnCl2, 50 mM Tris, pH 9.0. Substrate: 8 mM Thymidine 5′-monophosphate p-nitrophenol ester sodium salt (Sigma Cat #T4510). Enzyme: […] Recombinant Human ENPP-1 Protein (R&D Cat #6136-EN-010) in DMSO in 96-well clear assay plates.
An eight point serial dilution of drugs was prepared in 10× in assay buffer with the final assay concentrations starting at 10 μM, 3 μM, 1 μM, 0.3 μM and 0 μM. A dilution of DMSO was included as a control. The assay plate was set up as follows with each well in duplicate: 81 μL assay buffer+10 μL ENPP1 inhibitor or DMSO+5 μL Substrate+4 μL Enzyme. Both the enzyme and substrate was added to opposite sides of the well to ensure that there was no interaction until all wells had both components. The plate was then centrifuged gently for 10 seconds, followed by an incubation at 37° C. for 45 minutes. The reaction was quantified by measuring absorbance at 405 nm using an Envision plate reader.
IC50 values are determined using GraphPad Prism 5 software. The data were entered as an X-Y plot into the software as percent inhibition for each concentration of the drug. The concentration values of the drug were log transformed and the nonlinear regression was carried out using the “sigmoidal dose-response (variable slope)” option within the GraphPad software to model the data and calculate IC50 values. The IC50 values reported are the concentration of drug at which 50% inhibition was reached.

A further experiment addresses Recombinant CndP (CdnP) (Mycobacterium tuberculosis (strain ATCC 25618 / H37Rv), UniProt P71615). The experiment in a line: CndP Assay with BPNPP substrate. Format: biochemical, M. tuberculosis. Particulars: pH 8.0, 37° C. 45 minutes, read-out: Inhibition of CdnP IC50.
Another experiment deals with Recombinant CdnP Protein (Mycobacterium tuberculosis (strain ATCC 25618 / H37Rv), UniProt P71615). Put plainly: CdnP HPLC Assay with C-DI-AMP Substrate. In kind it is biochemical, M. tuberculosis. Particulars: HPLC AMP peak area, read-out: Inhibition percentage of CdnP; for inhibition at 100 µM: 100 μM compound.
Where [2] appears, read: substrate thymidine 5′-monophosphate p-nitrophenol ester, pH 9.0, 37° C. 45 minutes, read-out: Inhibition of ENPP1 IC50.

Where two headings read alike, the source gives them in different places. Some results are limits rather than exact numbers.

Sequence of Recombinant CdnP Protein (P71615 whole entry, looked up): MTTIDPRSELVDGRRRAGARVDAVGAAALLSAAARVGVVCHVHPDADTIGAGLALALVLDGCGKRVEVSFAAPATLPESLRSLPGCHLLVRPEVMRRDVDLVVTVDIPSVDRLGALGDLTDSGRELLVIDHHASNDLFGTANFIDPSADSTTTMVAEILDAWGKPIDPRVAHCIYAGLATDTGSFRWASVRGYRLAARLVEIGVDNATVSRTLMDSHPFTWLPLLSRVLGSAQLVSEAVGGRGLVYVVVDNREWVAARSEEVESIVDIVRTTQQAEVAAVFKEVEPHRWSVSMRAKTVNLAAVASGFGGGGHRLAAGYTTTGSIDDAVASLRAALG
Sequence of Recombinant CndP (CdnP) (P71615 whole entry, looked up): as above
Sequence of Recombinant Human ENPP-1 Protein (P22413 99-925): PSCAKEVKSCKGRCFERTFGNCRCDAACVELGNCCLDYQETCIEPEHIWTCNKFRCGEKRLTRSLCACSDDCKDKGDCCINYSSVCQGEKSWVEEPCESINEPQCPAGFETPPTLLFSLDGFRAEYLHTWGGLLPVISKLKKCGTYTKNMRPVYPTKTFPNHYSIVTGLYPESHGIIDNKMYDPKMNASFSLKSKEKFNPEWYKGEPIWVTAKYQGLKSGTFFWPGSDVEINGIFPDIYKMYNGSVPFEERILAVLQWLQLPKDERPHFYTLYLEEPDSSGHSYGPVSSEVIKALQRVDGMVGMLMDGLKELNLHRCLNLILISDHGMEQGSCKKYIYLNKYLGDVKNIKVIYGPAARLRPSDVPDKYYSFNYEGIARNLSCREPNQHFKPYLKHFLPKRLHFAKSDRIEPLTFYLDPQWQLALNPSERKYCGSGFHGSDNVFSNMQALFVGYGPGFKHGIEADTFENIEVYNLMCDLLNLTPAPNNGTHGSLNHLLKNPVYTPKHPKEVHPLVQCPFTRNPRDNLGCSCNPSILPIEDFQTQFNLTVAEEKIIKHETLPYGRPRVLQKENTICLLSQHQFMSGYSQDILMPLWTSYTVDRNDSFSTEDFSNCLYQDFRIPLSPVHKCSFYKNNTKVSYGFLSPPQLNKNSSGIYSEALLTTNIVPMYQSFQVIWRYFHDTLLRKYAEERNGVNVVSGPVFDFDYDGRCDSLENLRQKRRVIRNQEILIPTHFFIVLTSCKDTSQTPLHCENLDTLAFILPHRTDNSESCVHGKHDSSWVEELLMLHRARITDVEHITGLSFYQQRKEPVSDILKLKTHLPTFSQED

The term IC50 denotes the concentration at which inhibition is half-maximal. With `COc1cc2ncnc(N3CCCC(CCCP(=O)(O)O)CC3)c2cc1OC` (stereo not drawn) [Compound I-5, (3-(1-(6,7-dimethoxyquinazolin-4-yl)azepan-4-yl)propyl)phosphonic acid], the half-maximal inhibitory concentration (IC50) in experiment [1] lay in the range of 0.01 to 0.1 µM; on Recombinant CndP (CdnP), 0.1 to 1 µM.

Turning to `COc1cc2ncnc(N3CCCC(CCP(=O)(O)O)CC3)c2cc1OC` (stereo not drawn) [Compound I-4, (2-(1-(6,7-dimethoxyquinazolin-4-yl)azepan-4-yl)ethyl)phosphonic acid], the values for the IC50 (in experiment [1] (setting [2]); on Recombinant CndP (CdnP)) were below 0.01 µM and below 0.1 µM, respectively.

For orientation: inhibition means the drop in the measured response relative to a control, in per cent. Regarding `COc1cc2ncnc(-c3ccc(CP(=O)(O)O)nc3)c2cc1OC` [II-1, ((5-(6,7-dimethoxyquinazolin-4-yl)pyridin-2-yl)methyl)phosphonic acid], the inhibition at 100 µM on Recombinant CdnP Protein was above 50%.

As to `COc1cc2ncc(C#N)c(N3CCCC(CP(=O)(O)O)CC3)c2cc1OC` (stereo not drawn) [Compound I-7, ((1-(3-cyano-6,7-dimethoxyquinolin-4-yl)azepan-4-yl)methyl)phosphonic acid], the concentration for half-maximal inhibition (IC50) in experiment [1] (setting [2]) is below 0.01 µM; at Recombinant CndP (CdnP), below 0.1 µM.

Take `COc1cc2ncnc(N3CCC[C@H](CP(=O)(O)O)CC3)c2cc1OC` [Compound I-2, (S)-((1-(6,7-dimethoxyquinazolin-4-yl)azepan-4-yl)methyl)phosphonic acid]: the IC50 was above 0.1 µM in experiment [1] (setting [2]) and 0.1 to 1 µM at Recombinant CndP (CdnP).

Turning to `COc1cc2ncnc(N3CCCC(CP(=O)(OCOC(=O)C(C)C)OCOC(=O)C(C)C)CC3)c2cc1OC` (stereo not drawn) [Compound I-10, ((((1-(6,7-dimethoxyquinazolin-4-yl)azepan-4-yl)methyl)phosphoryl)bis(oxy))bis(methylene) bis(2-methylpropanoate)], the IC50 in experiment [1] (setting [2]) was above 0.1 µM; at Recombinant CndP (CdnP) it was above 1 µM.

As for `COc1cc2ncnc(N3CCCN(CP(=O)(O)O)CC3)c2cc1OC` [Compound I-6, ((4-(6,7-dimethoxyquinazolin-4-yl)-1,4-diazepan-1-yl)methyl)phosphonic acid], the half-maximal inhibitory concentration (IC50) in experiment [1] (setting [2]) was above 0.1 µM; on Recombinant CndP (CdnP), above 1 µM.

Take `COc1cc2ncnc(N3CCC[C@@H](CP(=O)(O)O)CC3)c2cc1OC` [Compound I-1, (R)-((1-(6,7-dimethoxyquinazolin-4-yl)azepan-4-yl)methyl)phosphonic acid]: on Recombinant CdnP Protein (1 μM compound), the inhibition at 1 µM was below 20%. In addition, the inhibition at 10 µM at Recombinant CdnP Protein (10 μM compound) is above 50%. The inhibition at 100 µM at Recombinant CdnP Protein was above 50%. Besides, the IC50 lay in the range of 0.01 to 0.1 µM in experiment [1] and 0.1 to 1 µM on Recombinant CndP (CdnP).

For the molecule `COc1cccc2c(N3CCCC(CP(=O)(O)O)CC3)ncnc12` (stereo not drawn) [Compound I-9, ((1-(8-methoxyquinazolin-4-yl)azepan-4-yl)methyl)phosphonic acid], the results for the IC50 (in experiment [1] (setting [2]); on Recombinant CndP (CdnP)) were below 0.01 µM and 0.1 to 1 µM, respectively.

On to `COc1cccc2c(N3CCCC(CP(=O)(O)O)CC3)ccnc12` (stereo not drawn) [Compound I-8, ((1-(8-methoxyquinolin-4-yl)azepan-4-yl)methyl)phosphonic acid], for which the IC50 in experiment [1] (setting [2]) was above 0.1 µM; on Recombinant CndP (CdnP), 0.1 to 1 µM.

Turning to `COc1cc2ncnc(N3CCCC(CP(=O)(O)O)CC3)c2cc1OC` (stereo not drawn) [Compound I-3, ((1-(6,7-dimethoxyquinazolin-4-yl)azepan-4-yl)methyl)phosphonic acid], the figures for the half-inhibitory concentration (IC50) (in experiment [1]; on Recombinant CndP (CdnP)) were 0.01 to 0.1 µM and 0.1 to 1 µM, respectively.
